Measured values: patent US20250017215A1, “LIQUID CARRIER CONCENTRATE COMPRISING AT LEAST ONE BENEFICIAL MICROORGANISM AND USES THEREOF” (priority 2021, published 2025)

Columns and labels:
[1] = system: Beauveria bassiana; assay: Microbial viability of liquid carrier concentrates upon accelerated storage stability study (shelf-life), colony counting; type: cell-based; details: storage at 25° C. without agitation
Description: (§1) Standard procedure for microbial viability assessment of liquid carrier concentrates upon accelerated storage stability study (Shelf-life assessment) In order to evaluate the shelf-life of liquid carrier concentrate of the fungi, the liquid carrier concentrates were prepared by mixing 5 wt % of a commercial product (biopesticide) containing a beneficial microorganism and 95 wt % of the solvent to be tested.
(§2) The commercial products tested were in powder form, and the beneficial microorganisms in the composition were: • Beauveria bassiana, • Paecilomyces lilacinus.
(§3) For comparison, a control experiment without the solvent was prepared. For Beauveria bassiana and Paecilomyces lilacinus, 5 wt % of the powder commercial product was added to 95 wt % soybean oil, 2-ethylhexyl lactate or isoamyl laurate.
(§4) The preparations were incubated under accelerated temperature test conditions, at 25° C. and the viability of the microorganism was evaluated after 0, 15 days, 1 month, 3 months, 6 months, 9 months, 12 months and 14 months of incubation without agitation. Trials were performed in duplicates.
(§5) To confirm that the microorganisms were viable after determined incubation/storage time, traditional serial dilution and plating of the samples for colony counting were performed.
(§6) For fungi evaluation, samples of 0.1 mL were taken from each preparation and added to 0.9 mL of an aqueous solution containing 0.1% of Tween 80 (polyoxyethylene sorbitan monooleate) to obtain a 10^−1 dilution. Then 0.1 mL of this dilution was added to 0.9 mL of the same aqueous solution successively until the most appropriate dilution was obtained (usually between 10-4 and 10-7). 0.2 mL of the most appropriate dilutions were spread into petri dishes containing the proper culture media for each microorganism and incubated (at 25° C. for Beauveria bassiana and Paecilomyces lilacinus), until the colony grew.
(§7) The number of the colonies on each petri dish was counted and the results are expressed by colony forming units (CFU)/mL.
(§8) Shelf-life assessment was done on two different fungi (Beauveria bassiana and Paecilomyces lilacinus) in Augeo SL191 solvent (formula (I), with R1, R2: methyl, and R3: H) and in three other benchmark solvents or oils according to the experimental procedures described above. For each microorganism, isoamyl laurate was tested in a different run series which explains the difference between its initial microorganism concentration (CFU/mL) and the one of the other three solvents. The recurrent colony counting was done at different incubation times: t=0, 15 days, 1 month, then every month until the CFU/mL value of a sample drops by two log 10 scale (>100 times), i.e. a reduction of 99%.

[2] = system: Paecilomyces lilacinus; assay: as above; type: cell-based; details: storage at 25° C. without agitation
Description: as §1, §2, §3, §4, §5, §6, §7, §8

Row | SMILES | Viability after 1 month ([1]; 1 month) | Viability after 1 month ([2]; 1 month) | Viability after 14 months ([1]; 14 months) | Viability after 14 months ([2]; 14 months)
1 | CCCCC(CC)COC(=O)C(C)O (stereo not shown) [2-ethyl hexyl lactate, 2-ethylhexyl lactate] | less than 1E+05 CFU/mL | less than 1E+05 CFU/mL | – | –
2 | CC1(C)OCC(CO)O1 (stereo not shown) [Augeo SL191, Solketal] | – | – | above 1E+06 CFU/mL | above 1E+06 CFU/mL
